Key:
Assay in all cases: competitive isoTOP-ABPP
Type in all cases: binding
[1] = biological target: T1, HK1 Hexokinase-1 (Homo sapiens, UniProt P19367); parameters: key to isoTOP-ABPP reactivity ratio at lysine P19367_K510: R = MS1 peak area ratio, DMSO (heavy) / compound-treated (light); conditions: for R value (DMSO/fragment) for probe 1 labeling: P19367_K510; for R value (DMSO/fragment) for probe 1 labeling / isoTOP-ABPP reactivity ratio at lysine P19367_K510 / isoTOP-ABPP ratio (R) at liganded lysine P19367_K510: 50 uM, in vitro; for R value (DMSO/fragment) for probe 1 labeling / isoTOP-ABPP reactivity ratio at lysine P19367_K510: 231 sol; for isoTOP-ABPP ratio (R) at liganded lysine P19367_K510: sol, 231
T1 construct: isoTOP-ABPP experiments performed in cell lysates (in vitro); endogenous in cells; host or cells: soluble proteome of human cancer cell lines (MDA-MB-231; Ramos and Jurkat also prepared)
T1 sequence (P19367 1-917): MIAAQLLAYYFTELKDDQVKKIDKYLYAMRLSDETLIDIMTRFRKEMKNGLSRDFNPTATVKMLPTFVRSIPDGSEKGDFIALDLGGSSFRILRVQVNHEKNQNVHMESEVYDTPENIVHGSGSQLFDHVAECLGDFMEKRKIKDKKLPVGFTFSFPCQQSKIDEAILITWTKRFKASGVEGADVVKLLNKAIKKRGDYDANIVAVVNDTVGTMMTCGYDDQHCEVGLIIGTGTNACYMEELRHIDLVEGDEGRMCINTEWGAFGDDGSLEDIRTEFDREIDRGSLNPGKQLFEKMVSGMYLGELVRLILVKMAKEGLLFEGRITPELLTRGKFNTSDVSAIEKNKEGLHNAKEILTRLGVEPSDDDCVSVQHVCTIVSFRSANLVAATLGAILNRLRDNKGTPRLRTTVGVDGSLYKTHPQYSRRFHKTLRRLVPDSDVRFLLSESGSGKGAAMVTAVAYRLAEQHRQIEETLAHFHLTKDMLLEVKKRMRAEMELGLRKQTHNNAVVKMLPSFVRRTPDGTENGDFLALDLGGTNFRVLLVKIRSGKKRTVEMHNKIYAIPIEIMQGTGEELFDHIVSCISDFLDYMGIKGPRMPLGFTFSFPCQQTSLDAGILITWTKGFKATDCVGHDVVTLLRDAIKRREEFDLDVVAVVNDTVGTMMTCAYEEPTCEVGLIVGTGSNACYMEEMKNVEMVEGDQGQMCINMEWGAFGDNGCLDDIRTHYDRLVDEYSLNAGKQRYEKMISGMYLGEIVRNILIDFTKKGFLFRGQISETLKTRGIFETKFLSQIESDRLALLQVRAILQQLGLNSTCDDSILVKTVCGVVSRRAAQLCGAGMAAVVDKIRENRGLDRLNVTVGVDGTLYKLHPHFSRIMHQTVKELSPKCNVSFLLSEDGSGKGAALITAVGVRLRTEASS
Method: (§1) In vitro covalent fragment treatment for isoTOP-ABPP. All compounds were made up as solutions in DMSO (100×) and were used at a final concentration of 50 μM for activated esters and 100 μM for guanidinylating agents. For each profiling sample, 0.5 ml of lysate was treated with 5 μl of the 100× compound stock solution or 5 μl of DMSO. Samples were treated with activated esters for
(§2) STP-alkyne labeling and click chemistry. For concentration-dependent reactivity measurements by isoTOP-ABPP, 0.5 ml proteome aliquots were treated at ambient temperature with 1 mM STP-alkyne 1 (5 μl of 100 mM stock in DMSO) and 0.1 mM STP alkyne 1 (5 μl of 10 mM stock in DMSO), respectively. For competitive isoTOP-ABPP, after in vitro fragment treatment (detailed above), the samples were labeled for 1 h at ambient temperature with 0.1 mM STP-alkyne 1 (5 μl of 10 mM stock in DMSO). Samples were conjugated by copper-mediated azide-alkyne cycloaddition (CuAAC) to either the light (1 mM STP-alkyne or fragment treated) or heavy (0.1 mM STP-alkyne or DMSO treated) TEV tags (10 μl of 5 mM stocks in DMSO, final concentration=100 μM) using tris(2-carboxyethyl)phosphine hydrochloride
(§3) R value calculation and processing. The ratios of light and heavy MS1 peaks for each unique peptide were quantified with a CIMAGE software using default parameters (3 MS1 acquisitions per peak and signal to noise threshold set to 2.5). For reactivity measurements by isoTOP-ABPP, the R value was calculated from the ratio of MS1 peak areas, comparing the 1 mM STP alkyne sample (light TEV tag) with the 0.1 mM STP alkyne sample (heavy TEV tag). For competitive isoTOP-ABPP, the R value was calculated from the ratio of MS1 peak areas, comparing the DMSO treated sample (heavy TEV tag) with the compound treated sample (light TEV tag). […] Ratios for unique peptide entries are calculated for each experiment; overlapping peptides with the same modified lysine (for example, different charge states, MudPIT chromatographic steps or tryptic termini) are grouped together and the median ratio is reported as the final ratio (R). The peptide ratios reported by CIMAGE were further filtered to ensure the removal or correction of low-quality ratios in each individual data set. The quality filters applied were the following: removal of half tryptic peptides; for ratios with high standard deviations from the median (90% of the median or above) the lowest ratio was taken instead of the median; removal of peptides with R=20 and only a single MS2 event triggered during the elution of the parent ion; manual annotation of all the peptides with ratios of 20, removing any peptides with low quality elution profiles that remained after the previous curation steps (only done for competitive isoTOP-ABPP).
(§4) Cross-data processing for fragment screening. For compound treated samples, biological replicates of the same condition were averaged, if the standard deviation was below 60% of the mean; otherwise, for lysines with at least one R value <4 for a particular compound, the lowest value of the ratio set was taken. For lysines, where all R values for a particular compound were ≥4, the average was reported. For peptides containing several possible modified lysines, the lysine with the highest number of quantification events was used for analysis and the remaining, redundant peptides were reported as alternative modification sites. Peptides included in the aggregate dataset (those used for further bioinformatics and statistical analyses) were required to have been quantified in 2 experiments for competitive isoTOP-ABPP. Lysines were categorized as liganded, if they had at least one ratio R≥4 (hit fragments). For liganded lysines with R=20 for all liganding events, lysines were required to have been quantified with R=20 in two separate experiments and were further required to have been quantified with R<20 in one additional experiment.

[2] = biological target: T2, EEF1G Elongation factor 1-gamma (Homo sapiens, UniProt P26641); conditions: for R value (DMSO/fragment) for probe 1 labeling: P26641_K227; for R value (DMSO/fragment) for probe 1 labeling / isoTOP-ABPP reactivity ratio at lysine P26641_K227: 50 uM, 231 sol, in vitro
T2 construct: isoTOP-ABPP experiments performed in cell lysates (in vitro); endogenous in cells; host or cells: soluble proteome of human cancer cell lines (MDA-MB-231; Ramos and Jurkat also prepared)
T2 sequence (P26641 whole entry, the tested form may be a part): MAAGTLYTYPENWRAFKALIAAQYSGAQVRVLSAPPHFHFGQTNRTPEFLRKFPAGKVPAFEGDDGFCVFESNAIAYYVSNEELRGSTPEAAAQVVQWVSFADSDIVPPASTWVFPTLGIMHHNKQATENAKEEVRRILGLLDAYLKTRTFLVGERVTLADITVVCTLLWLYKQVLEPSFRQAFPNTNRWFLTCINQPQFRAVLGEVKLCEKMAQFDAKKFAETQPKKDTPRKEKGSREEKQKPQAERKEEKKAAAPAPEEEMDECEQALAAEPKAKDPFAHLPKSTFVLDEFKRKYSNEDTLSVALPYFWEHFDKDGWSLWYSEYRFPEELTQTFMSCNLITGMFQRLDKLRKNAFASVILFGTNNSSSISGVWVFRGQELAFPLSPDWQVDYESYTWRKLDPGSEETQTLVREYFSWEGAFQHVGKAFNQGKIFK
Outline: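 Cell lysate (0.5 ml) was pre-treated with fragment, 50 μM for activated esters or 100 μM for guanidinylating agents, versus DMSO, then labeled 1 h at ambient temperature with 0.1 mM STP-alkyne. Light/heavy TEV tags attached by CuAAC; R = DMSO/compound MS1 peak-area ratio, median per lysine.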

[3] = biological target: T3, SRP54 Signal recognition particle 54 kDa protein (Homo sapiens, UniProt P61011); parameters: key to isoTOP-ABPP reactivity ratio at lysine P61011_K81: R = MS1 peak area ratio, DMSO (heavy) / compound-treated (light); capped at 20; conditions: for R value (DMSO/fragment) for probe 1 labeling: P61011_K81; for R value (DMSO/fragment) for probe 1 labeling / isoTOP-ABPP reactivity ratio at lysine P61011_K81 / isoTOP-ABPP ratio (R) at liganded lysine P61011_K81: 50 uM, in vitro; for R value (DMSO/fragment) for probe 1 labeling / isoTOP-ABPP reactivity ratio at lysine P61011_K81: 231 sol; for isoTOP-ABPP ratio (R) at liganded lysine P61011_K81: sol, 231
T3 construct: isoTOP-ABPP experiments performed in cell lysates (in vitro); endogenous in cells; host or cells: soluble proteome of human cancer cell lines (MDA-MB-231, Ramos, Jurkat)
T3 sequence (P61011 whole entry, the tested form may be a part): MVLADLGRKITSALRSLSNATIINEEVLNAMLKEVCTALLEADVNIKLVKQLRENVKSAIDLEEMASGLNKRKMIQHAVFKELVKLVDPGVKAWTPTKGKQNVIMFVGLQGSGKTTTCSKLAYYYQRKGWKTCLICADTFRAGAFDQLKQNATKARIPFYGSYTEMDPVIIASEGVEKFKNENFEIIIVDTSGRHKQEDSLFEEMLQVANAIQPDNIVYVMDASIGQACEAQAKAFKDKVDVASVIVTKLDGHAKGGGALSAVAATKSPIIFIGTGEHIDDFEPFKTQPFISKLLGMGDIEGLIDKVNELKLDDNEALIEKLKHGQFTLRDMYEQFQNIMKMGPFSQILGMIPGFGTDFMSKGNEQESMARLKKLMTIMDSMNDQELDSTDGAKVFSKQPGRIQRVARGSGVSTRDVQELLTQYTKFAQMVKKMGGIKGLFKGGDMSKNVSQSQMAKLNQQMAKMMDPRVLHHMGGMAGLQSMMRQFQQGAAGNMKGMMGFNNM
Method: as §1, §2, §3, §4

For `O=C(CCc1cn(-c2ccccc2)nc1-c1ccccc1)Oc1c(F)c(F)c(F)c(F)c1F` [fragment 19, Pentafluorophenyl 3-(1,3-diphenyl-1H-pyrazol-4-yl)propanoate], the “R value (DMSO/fragment) for probe 1 labeling” value (shortened to “R value (DMSO/fragment)”) [1] was 1.2.
`O=C(Oc1c(F)c(F)c(F)c(F)c1F)C(c1ccccc1)c1ccccc1` [fragment 20, Pentafluorophenyl 2,2-diphenylacetate] was tested, and the “R value (DMSO/fragment)” value [2] was 0.9, the “R value (DMSO/fragment)” value [1] was 0.9 and the “R value (DMSO/fragment)” value [3] was 1.0.
In the case of `O=C(Oc1c(F)c(F)c(F)c(F)c1F)c1cc(C(F)(F)F)cc(C(F)(F)F)c1` [fragment 21, Pentafluorophenyl 3,5-bis(trifluoromethyl)benzoate], the “R value (DMSO/fragment)” value [2] is reported as 0.8, the “R value (DMSO/fragment)” value [1] is reported as 1.0 and the “R value (DMSO/fragment)” value [3] is reported as 0.7.
In the case of `Cn1cc(CC(=O)Oc2c(F)c(F)c(F)c(F)c2F)c2ccccc21` [fragment 22, Pentafluorophenyl 2-(1-methyl-1H-indol-3-yl)acetate], the “R value (DMSO/fragment)” value [1] is reported as 1.3 and the “R value (DMSO/fragment)” value [3] is reported as 0.9.
In the case of `COc1cc(CCC(=O)Oc2c(F)c(F)c(F)c(F)c2F)cc(OC)c1OC` [fragment 23, Pentafluorophenyl 3-(3,4,5-trimethoxyphenyl)propanoate], the “R value (DMSO/fragment)” value [1] is reported as 2.0.
`O=C(Oc1c(F)c(F)c(F)c(F)c1F)C1CCN(C(=O)OCc2ccccc2)CC1` [fragment 24, 1-Benzyl 4-(pentafluorophenyl) piperidine-1,4-dicarboxylate] was tested, and the “isoTOP-ABPP reactivity ratio at lysine P26641_K227” value [2] was 0.9.
In the case of `O=C(Oc1c(F)c(F)c(F)c(F)c1F)c1ccc2ccccc2n1` [fragment 25, Pentafluorophenyl quinoline-2-carboxylate], the “isoTOP-ABPP reactivity ratio at lysine P26641_K227” value [2] is reported as 1.1, the “isoTOP-ABPP reactivity ratio at lysine P19367_K510” value [1] is reported as 1.2 and the “isoTOP-ABPP reactivity ratio at lysine P61011_K81” value [3] is reported as 0.8.
`O=C(CCc1coc2cc(F)ccc2c1=O)Oc1c(F)c(F)c(F)c(F)c1F` [fragment 26, Pentafluorophenyl 3-(7-fluoro-4-oxo-4H-chromen-3-yl)propanoate] was tested, and the “isoTOP-ABPP reactivity ratio at lysine P26641_K227” value [2] was 0.8, the “isoTOP-ABPP reactivity ratio at lysine P19367_K510” value [1] was 3.4 and the “isoTOP-ABPP reactivity ratio at lysine P61011_K81” value [3] was 1.0.
For `O=C(CN1C(=O)c2ccccc2C1=O)Oc1c(F)c(F)c(F)c(F)c1F` [fragment 27, Pentafluorophenyl 2-(1,3-dioxoisoindolin-2-yl)acetate], the “isoTOP-ABPP reactivity ratio at lysine P26641_K227” value [2] was 1.2 and the “isoTOP-ABPP reactivity ratio at lysine P19367_K510” value [1] was 1.3.
With `Cn1cc(CC(=O)Oc2ccc([N+](=O)[O-])cc2[N+](=O)[O-])c2ccccc21` [fragment 32, 2,4-Dinitrophenyl 2-(1-methyl-1H-indol-3-yl)acetate] the “isoTOP-ABPP reactivity ratio at lysine P19367_K510” value [1] was 8.6 and the “isoTOP-ABPP reactivity ratio at lysine P61011_K81” value [3] was 20.0.
With `O=C(Oc1ccc([N+](=O)[O-])cc1[N+](=O)[O-])C1CCN(C(=O)OCc2ccccc2)CC1` [fragment 34, 1-Benzyl 4-(2,4-dinitrophenyl) piperidine-1,4-dicarboxylate] the “isoTOP-ABPP ratio (R) at liganded lysine P19367_K510” value [1] was 20.0 and the “isoTOP-ABPP ratio (R) at liganded lysine P61011_K81” value [3] was 0.8.
For `O=C(Oc1ccc([N+](=O)[O-])cc1[N+](=O)[O-])c1ccc2ccccc2n1` [fragment 35, 2,4-Dinitrophenyl quinoline-2-carboxylate], the “isoTOP-ABPP ratio (R) at liganded lysine P19367_K510” value [1] was 1.1 and the “isoTOP-ABPP ratio (R) at liganded lysine P61011_K81” value [3] was 0.8.
For `O=C(CCc1coc2cc(F)ccc2c1=O)Oc1ccc([N+](=O)[O-])cc1[N+](=O)[O-]` [fragment 36, 2,4-Dinitrophenyl 3-(7-fluoro-4-oxo-4H-chromen-3-yl)propanoate], the “isoTOP-ABPP ratio (R) at liganded lysine P19367_K510” value [1] was 3.7 and the “isoTOP-ABPP ratio (R) at liganded lysine P61011_K81” value [3] was 1.3.
In the case of `O=C(Oc1ccc([N+](=O)[O-])cc1[N+](=O)[O-])c1ccc(-c2ccccc2)cc1` [fragment 37, 2,4-Dinitrophenyl [1,1′-biphenyl]-4-carboxylate], the “isoTOP-ABPP ratio (R) at liganded lysine P19367_K510” value [1] is reported as 0.9 and the “isoTOP-ABPP ratio (R) at liganded lysine P61011_K81” value [3] is reported as 0.9.
`O=C(CC12CC3CC(CC(C3)C1)C2)Oc1ccc([N+](=O)[O-])cc1[N+](=O)[O-]` [fragment 38, 2,4-Dinitrophenyl 2-(adamantan-1-yl)acetate] was tested, and the “isoTOP-ABPP ratio (R) at liganded lysine P19367_K510” value [1] was 1.7.
`O=C(Oc1ccc([N+](=O)[O-])cc1[N+](=O)[O-])c1ccc(Oc2ccccc2)cc1` [fragment 39, 2,4-Dinitrophenyl 4-phenoxybenzoate] was tested, and the “isoTOP-ABPP ratio (R) at liganded lysine P19367_K510” value [1] was 0.9 and the “isoTOP-ABPP ratio (R) at liganded lysine P61011_K81” value [3] was 0.9.
In the case of `O=C(Oc1c(F)c(F)c(C(F)(F)F)c(F)c1F)c1cc(C(F)(F)F)cc(C(F)(F)F)c1` [fragment 47, 2,3,5,6-Tetrafluoro-4-(trifluoromethyl)phenyl 3,5-bis(trifluoromethyl)benzoate], the “isoTOP-ABPP ratio, lysine P19367_K510” value ([1]; 50 uM_231_sol_in vitro) is reported as 0.9 and the “isoTOP-ABPP ratio, lysine P61011_K81” value ([3]; 50 uM_231_sol_in vitro) is reported as 0.9.
For `O=C(Oc1c(F)c(F)cc(F)c1F)c1cc(C(F)(F)F)cc(C(F)(F)F)c1` [fragment 48, 2,3,5,6-Tetrafluorophenyl 3,5-bis(trifluoromethyl)benzoate], the “isoTOP-ABPP ratio, lysine P19367_K510” value ([1]; 50 uM_231_sol_in vitro) was 0.8 and the “isoTOP-ABPP ratio, lysine P61011_K81” value ([3]; 50 uM_231_sol_in vitro) was 1.1.
With `COC(=O)NC(=NC(=O)OCC1c2ccccc2-c2ccccc21)n1cccn1` [fragment 49, N-Methoxycarbonyl-N′-9-fluorenylmethoxycarbonyl-pyrazole-1-carboxamidine] the “isoTOP-ABPP ratio, lysine P19367_K510” value ([1]; 100 uM_231_sol_in vitro) was 1.1 and the “isoTOP-ABPP ratio, lysine P61011_K81” value ([3]; 100 uM_231_sol_in vitro) was 1.0.
In the case of `CC(C)(C)OC(=O)N=C(NC(=O)OC(C)(C)C)n1cccn1` [fragment 50, reference compound], the “isoTOP-ABPP ratio, lysine P26641_K227” value ([2]; 100 uM_231_sol_in vitro) is reported as 1.2 and the “isoTOP-ABPP ratio, lysine P19367_K510” value ([1]; 100 uM_231_sol_in vitro) is reported as 1.0.
